Data from patent US10093621B2, “4-oxo-N-(4-hydroxyphenyl)retinamide derivatives as therapeutic agents for the treatment of cancer” (FONDAZIONE IRCCS ISTITUTO NAZIONALE DEI TUMORI, priority 2014, dated 2018).

Experiments:
A2780 = assay: Antiproliferative activity, sulphorhodamine B assay, 72 hours of treatment; format: cell-based; conditions: A2780 (ovary)
Procedure: (§1) The antiproliferative activity of the various compounds 1a-c (in both monotherapy and combined treatment) on the different tumour cell lines was evaluated by sulphorhodamine B assay after 72 hours of treatment, and the dose able to inhibit 50% of growth (IC50) was calculated for the monotherapy (the results are summarized in Table 1 and Table 3), while the Kern Index (KI) was determined as the synergism/antagonism […] index for the combined treatment (the results are depicted in FIG. 2).

[1] = test system: ovarian cancer cells (A2780); assay: Cell cycle and apoptosis in ovarian cancer cells; format: cell-based
[2] = In vivo plasma levels by HPLC after i.p. administration; set-up: species or system nude mice; conditions: for Plasma level: 5 hours after last administration, 5% DMSO, H2O
Procedure: To evaluate the plasma levels of salt 1a, 4-oxo-4-HPR (120 mg/kg) and salt 1a (sodium 4-aminoxyacetate-4-HPR) (60 and 100 mg/kg) were administered i.p. to nude mice for 4 consecutive days (once a day), and the plasma levels were evaluated by HPLC 5 hours after the last administration (the results are summarized in Table 2).

T47-D = assay: Antiproliferative activity, sulphorhodamine B assay, 72 hours of treatment; format: cell-based; conditions: T47-D (breast)
Procedure: as §1

MDA-MB-231 = assay: as above; format: cell-based, human; conditions: MDA-MB-231 (breast)
Procedure: as §1

IGROV-1 = assay: as above; format: cell-based, human; conditions: IGROV-1 (ovary)
Procedure: as §1

[3] = test system: ovarian cancer (IGROV-1) cells; format: in vivo
Procedure: For the ovarian model, nude mice were inoculated i.p. with IGROV-1 cells, and treatment with the salt 1a began one day after tumor cell inoculation (doses: 30, 60 and 90 mg/kg i.p.; 5 days/week for 4 weeks). The control mice were treated with the same solvent as used to dissolve the salt. The animals were examined twice a week to check their weight and any signs of toxicity. The survival time of the various groups (control and treated) was evaluated, and the differences were statistically analysed.

cell cycle = assay: Cell cycle, propidium iodide staining, FACS; format: cell-based
Procedure: (§2) As regards to the evaluation of the mechanism of action, ROS generation was determined after 5 hours of treatment with the use of the 5-(and -6)-chloromethyl-2′, 7′-dichlorodihydrofluorescein diacetate (CM-H2DCFDA) probe, while the cell cycle was evaluated by staining with propidium iodide. Cytofluorimetric analysis (FACS) was conducted in both cases.

[4] = test system: human breast cancer cells (MDA-MB-231); assay: In vivo antitumor activity, breast cancer model (mammary fat pad); conditions: 90 mg/kg
Procedure: As regards the breast cancer model, human breast cancer cells (MDA-MB-231) were inoculated into the mammary fat pad of NOD/SCID-gamma mice, and treatment with the salt 1a began one week after tumor cell inoculation (dose: 90 mg/kg; 4 days/week for 5 weeks). The animals were examined twice a week to check their weight and any signs of toxicity. Tumour growth in the various groups (control and treated) was evaluated, and the differences were statistically analysed.

JVM-2 = assay: Antiproliferative activity, sulphorhodamine B assay, 72 hours of treatment; format: cell-based; conditions: JVM-2 (lymphoma)
Procedure: as §1

MESO = assay: as above; format: cell-based; conditions: MESO (mesothelioma)
Procedure: as §1

SK-N-BE = assay: as above; format: cell-based; conditions: SK-N-BE (neuroblastoma)
Procedure: as §1

Sk-N-5Y = assay: as above; format: cell-based; conditions: Sk-N-5Y (neuroblastoma)
Procedure: as §1

SKOV-3 = assay: as above; format: cell-based; conditions: SKOV-3 (ovary)
Procedure: as §1

SK-N-SH = assay: as above; format: cell-based; conditions: SK-N-SH (neuroblastoma)
Procedure: as §1

BT-474 = assay: as above; format: cell-based; conditions: BT-474 (breast)
Procedure: as §1

ROS = ROS generation, CM-H2DCFDA probe, FACS; format: cell-based; conditions: 5 hours of treatment
Procedure: as §2

STO = assay: Antiproliferative activity, sulphorhodamine B assay, 72 hours of treatment; format: cell-based, human; conditions: STO (mesothelioma)
Procedure: as §1

[5] = test system: human mesothelioma (STO) cells; assay: In vivo antitumor activity, mesothelioma xenograft (s.c.); set-up: species or system mice; conditions: 30 and 60 mg/kg i.p., 5 days/week for 4 weeks
Procedure: As regards to mesothelioma, the mice were inoculated s.c. with STO cells, and treatment with the salt 1a began one day after tumor cell inoculation (doses: 30 and 60 mg/kg i.p.; 5 days/week for 4 weeks). The control mice were treated with the same solvent as used to dissolve the salt. The animals were examined twice a week to check their weight and any signs of toxicity. Tumour growth in the various groups (control and treated) was evaluated, and the differences were statistically analysed (the results are shown in FIG. 3a).

[6] = test system: tumour cell lines of different histotypes; assay: Antiproliferative activity of combined treatment, sulphorhodamine B assay, Kern Index; format: cell-based; conditions: 72 hours, preliminary
Procedure: as §1

Q: Which melting point does the source give for `CC(C=CC1=C(C)C(=NOCCN)CCC1(C)C)=CC=CC(C)=CC(=O)Nc1ccc(O)cc1` [Compound 1d, 9-[3-(2-Amino-ethoxyimino)-2,6,6-trimethyl-cyclohex-1-enyl]-3,7-dimethylnona-2,4,6,8-tetraenoic acid (4-hydroxy-phenyl)amide] here?
A: 134 °C

Q: And the IC50 (A2780; Homo sapiens)?
A: 955 nM

Q: What about the “Apoptotic activity (sub-G1 peak)” value [1] of the same compound?
A: apoptotic (sub-G1 peak)

Q: And the Cell cycle arrest [1]?
A: induced a cycle arrest in G2-M

Q: For `CC1=C(/C=C/C(C)=C/C=C/C(C)=C/C(=O)Nc2ccc(O)cc2)C(C)(C)CCC1=O` [Compound 4-oxo-4-HPR, 4-oxo-N-(4-hydroxyphenyl)retinamide], which Plasma level ([2]; i.p. once a day for 4 days, 5% cremophor) is on record?
A: 0.8 μM ± 0.4

Q: And the “Accumulation of the compound in proximity to the inoculation site” value ([2]; treated mice, i.p.)?
A: observed

Q: For `CC1=C(/C=C/C(C)=C/C=C/C(C)=C/C(=O)Nc2ccc(O)cc2)C(C)(C)CCC1=NOCCCC(=O)O` [LOM1098], which IC50 (T47-D) is on record?
A: 4200 nM

Q: And the IC50 (A2780)?
A: 3590 nM

Q: And the IC50 (MDA-MB-231)?
A: 4260 nM

Q: What about the IC50 (IGROV-1) of the same compound?
A: 3540 nM

Q: For `CC1=C(/C=C/C(C)=C/C=C/C(C)=C/C(=O)Nc2ccc(O)cc2)C(C)(C)CCC1=NOCC(=O)[O-].[Na+]` [Salt 1a], which “Survival of the mice” value ([3]; IGROV-1 i.p., doses of 60 and 90 mg/kg i.p., 5 days/week for 4 weeks, p<0.01) is on record?
A: significantly increased the survival

Q: What about the Signs of toxicity ([3]; IGROV-1 model, 60 and 90 mg/kg) of the same compound?
A: without any evident signs of severe toxicity

Q: What about the Plasma level ([2]; 60 mg/Kg i.p. once a day for 4 days) of the same compound?
A: 60.3 μM ± 2.52

Q: What about the Plasma level ([2]; 100 mg/Kg i.p. once a day for 4 days) of the same compound?
A: 63.7 μM ± 2.08

Q: And the “Toxicity for the animals” value ([2]; daily doses of 60 and 100 mg/kg)?
A: does not possess high toxicity

Q: And the “Solubility compared with the parent compound” value ([2]; from in vivo experiments in murine models)?
A: far more soluble than the parent compound

Q: And the “Plasma levels, times higher than 4-oxo-4-HPR” value ([2]; murine models, versus 4-oxo-4-HPR)?
A: up to 60 times

Q: And the “Cell cycle arrest during the mitotic phase (antitubulin activity)” value (cell cycle)?
A: the cell cycle arrest during the mitotic phase

Q: What about the Tumour growth ([4]; MDA-MB-231, 4 days/week for 5 weeks, p=0.01) of the same compound?
A: reduced tumour growth

Q: And the Signs of toxicity ([4]; MDA-MB-231 model)?
A: without evident signs of severe toxicity

Q: What about the IC50 (T47-D) of the same compound?
A: 3950 nM

Q: And the IC50 (JVM-2)?
A: 1110 nM

Q: And the IC50 (MESO)?
A: 1280 nM

Q: And the IC50 (SK-N-BE)?
A: 1550 nM

Q: What about the IC50 (Sk-N-5Y) of the same compound?
A: 1300 nM

Q: And the IC50 (SKOV-3)?
A: 5960 nM

Q: What about the IC50 (A2780) of the same compound?
A: 2780 nM

Q: What about the IC50 (SK-N-SH) of the same compound?
A: 1900 nM

Q: What about the IC50 (BT-474) of the same compound?
A: 3690 nM

Q: And the “ROS generation (pro-apoptotic activity)” value (ROS)?
A: the generation of ROS

Q: What about the IC50 (STO) of the same compound?
A: 1480 nM

Q: And the IC50 (MDA-MB-231)?
A: 3970 nM

Q: And the IC50 (IGROV-1)?
A: 3820 nM

Q: What about the Tumour growth [5] of the same compound?
A: activity trend of the compound, although it did not reach statistical significance

Q: And the “Activity of combined treatment (Kern Index)” value (“Activity … (Kern Index)” for short) ([6]; combined with 4-HPR)?
A: synergic activity

Q: And the “Activity … (Kern Index)” value ([6]; combined with cisplatin)?
A: synergic activity

Q: What about the “Activity … (Kern Index)” value ([6]; combined with paclitaxel) of the same compound?
A: synergic activity

Q: What does the source list for `CCCCC(ON=C1CCC(C)(C)C(/C=C/C(C)=C/C=C/C(C)=C/C(=O)Nc2ccc(O)cc2)=C1C)C(=O)O` (centres unmarked) [LOM1133]?
A: IC50 (T47-D): 3000 nM; IC50 (A2780): 2370 nM; IC50 (MDA-MB-231): 2950 nM; IC50 (IGROV-1): 2190 nM
